Results on 2 compounds are retold here after US20090004474A1, “Lyocell fibers with anti-microbial activity” (Weyerhaeuser Co., priority 2007, published 2009).

One test relates to C. Albicans. Kind of test: Growth medium study, antimicrobial test of meltblown fibers against C. albicans. In kind it is cell-based. To be noted: compared to a control at the same time. The protocol:
Growth Medium Study Procedure
C. albicans: Prep Culti-Loop in 1.0 ml of sterile dilute PBS
ATCC 10231 Solution for 10 min. Streak onto SDA and grow for 24 hours @ 35 C
a. Prepare 9.0 ml dilute PBS tubes. Remove (wash) each culture organism from slants and add to PBS tubes.
Adjust so the turbidity of the culture matches a 0.5 McFarland solution (In BAM Media Pages). This is the stock culture solution. (S. aureus & E. coli, C. albicans.)
c. For C. albicans add 1.0 ml stock culture solution to 1.0 liter of MGM. (about […] final population)
6. Specialized MGM solutions for each Organism: • a. S. aureus: 94.4 ml stock PBS+849.6 DI water; adjust pH & sterilize. (or […] pre-diluted PBS Stock solution). (2X+2)200=2000 ml for 4. • ADD: 1.0 ml MSM • 50 ml BME vitamins. • 5 ml 1% Peptone. • 1.0 ml diluted Bacterial Culture (pre-made) • b. E. coli: 94.9 ml stock PBS+854.1 ml DI water; adjust pH & sterilize. (or 949 ml pre-diluted PBS Stock solution). (2X+2)200=2000 ml for 4. • ADD: 1.0 ml MSM • 50 ml BME vitamins. • 1.0 ml diluted Bacterial Culture (pre-made) • c. C. albicans: 92.9 ml stock PBS+836.1 ml DI water; adjust pH & sterilize. (or 929 ml pre-diluted PBS Stock solution). (2X+2)200=2000 ml for 4. • ADD: 1.0 ml MSM • 50 ml BME vitamins. • 20 ml 10% Peptone. • 10 ml 10% (NH4)2SO4 • 1.0 ml of Undiluted Bacterial Culture (pre-made) 7. Product to test:
a. […]

The test system of another test is E coli. Nature of the test: Growth medium study, antimicrobial test of meltblown fibers against E. coli. In kind it is cell-based. To be noted: compared to a control at the same time; for reduction of E. coli colony forming units at twenty four hours compared to a control: 24 hours.

Protocol for E coli: E. coli: Prep Culti-Loop in 1.0 ml sterile TSB for 10 min.
ATCC 8739 Streak to TSA slant and grow for 24 hours @ 35 C
For S. aureus and E. coli, make 1:100 dilution of stock culture solution, and add 1.0 ml of the diluted solution to 1.0 liter of MGM.
S. aureus: 94.4 ml stock PBS+849.6 DI water; adjust pH & sterilize. (or 994 ml pre-diluted PBS Stock solution). (2X+2)200=2000 ml for 4. • ADD: 1.0 ml MSM • 50 ml BME vitamins. • 5 ml 1% Peptone. • 1.0 ml diluted Bacterial Culture (pre-made) • b. E. coli: 94.9 ml stock PBS+854.1 ml DI water; adjust pH & sterilize. (or 949 ml pre-diluted PBS Stock solution). (2X+2)200=2000 ml for 4. • ADD: 1.0 ml MSM • 50 ml BME vitamins. • 1.0 ml diluted Bacterial Culture (pre-made) • c. C. albicans: 92.9 ml stock PBS+836.1 ml DI water; adjust pH & sterilize. (or 929 ml pre-diluted PBS Stock solution). (2X+2)200=2000 ml for 4. • ADD: 1.0 ml MSM • 50 ml BME vitamins. • 20 ml 10% Peptone. • 10 ml 10% (NH4)2SO4 • 1.0 ml of Undiluted Bacterial Culture (pre-made) 7. Product to test:
Prep enough sterile 250 Plastic Bottles to handle 2 repetitions of each organism plus pos. and neg. control. (45 flasks are needed to test 6 products.) • B. Label all Plastic Bottles with organism (Staph, E. coli, C alb.), plus Sequential Number (W-1,W-2 . . . , W-45). • c. Add 2.0 gm of each product to be tested to each Plastic Bottle (or a sterile blender if Sample is not soft), then add 200 ml of inoculated MGM. Incubate, with shaking (in wire milk case—attached to shaker waterbath—plus one or two plastic cases) for 4 and 24 hours at 37 C Run duplicate tests. […] Run two bottles for each organism containing 200 ml of inoculated MGM, without Weyerhaeuser Sample. These are Blanks. • f. Run positive controls, TSB in place of Sample (see below) for each organism type. […] Incubation and counting. • a. […]

As to `[O]=[Zn]` [Zinc oxide], the “reduction of C. albicans count at four hours compared to a control” value in the test with C. Albicans (4 hours) is “at least ninety five”. In addition, the “reduction of C. albicans count at twenty four hours compared to a control” value in the test on C. Albicans (24 hours) was “at least ninety five”. For the same compound, the “reduction of E. coli colony forming units at twenty four hours compared to a control” value in the test on E coli is “at least ninety five”.

`O=C([O-])[O-].[Ca+2]` [calcium carbonate, Calcium carbonate]: the “reduction of E. coli colony forming units at four hours compared to a control” value with E coli (4 hours) is on record as “more than ninety five”. In addition, in the test on E coli, the “reduction of E. coli colony forming units at twenty four hours compared to a control” value was “more than ninety five”.
